Reference: ChEMBL document CHEMBL5308504, “Tm Shift (DSF) assay results for EUbOPEN Chemogenomics Library” (2023)
Where “and” joins values, the source holds several entries; their conditions need not be identical. Equal values may be shown once.

Key:
[1] = biological target: Fibroblast growth factor receptor 3 (Homo sapiens) (UniProt P22607); conditions: Compound concentration 20.0 uM, Protein concentration 2.0 uM, Result type QC Liability
Description: Thermal Shift Assay. Domain: start/stop: P449-E759

Peregrin (Homo sapiens) = biological target: T1, Peregrin (Homo sapiens) (UniProt P55201); conditions: Compound concentration 20.0 uM, Protein concentration 2.0 uM, Result type QC Liability
T1 sequence (whole entry): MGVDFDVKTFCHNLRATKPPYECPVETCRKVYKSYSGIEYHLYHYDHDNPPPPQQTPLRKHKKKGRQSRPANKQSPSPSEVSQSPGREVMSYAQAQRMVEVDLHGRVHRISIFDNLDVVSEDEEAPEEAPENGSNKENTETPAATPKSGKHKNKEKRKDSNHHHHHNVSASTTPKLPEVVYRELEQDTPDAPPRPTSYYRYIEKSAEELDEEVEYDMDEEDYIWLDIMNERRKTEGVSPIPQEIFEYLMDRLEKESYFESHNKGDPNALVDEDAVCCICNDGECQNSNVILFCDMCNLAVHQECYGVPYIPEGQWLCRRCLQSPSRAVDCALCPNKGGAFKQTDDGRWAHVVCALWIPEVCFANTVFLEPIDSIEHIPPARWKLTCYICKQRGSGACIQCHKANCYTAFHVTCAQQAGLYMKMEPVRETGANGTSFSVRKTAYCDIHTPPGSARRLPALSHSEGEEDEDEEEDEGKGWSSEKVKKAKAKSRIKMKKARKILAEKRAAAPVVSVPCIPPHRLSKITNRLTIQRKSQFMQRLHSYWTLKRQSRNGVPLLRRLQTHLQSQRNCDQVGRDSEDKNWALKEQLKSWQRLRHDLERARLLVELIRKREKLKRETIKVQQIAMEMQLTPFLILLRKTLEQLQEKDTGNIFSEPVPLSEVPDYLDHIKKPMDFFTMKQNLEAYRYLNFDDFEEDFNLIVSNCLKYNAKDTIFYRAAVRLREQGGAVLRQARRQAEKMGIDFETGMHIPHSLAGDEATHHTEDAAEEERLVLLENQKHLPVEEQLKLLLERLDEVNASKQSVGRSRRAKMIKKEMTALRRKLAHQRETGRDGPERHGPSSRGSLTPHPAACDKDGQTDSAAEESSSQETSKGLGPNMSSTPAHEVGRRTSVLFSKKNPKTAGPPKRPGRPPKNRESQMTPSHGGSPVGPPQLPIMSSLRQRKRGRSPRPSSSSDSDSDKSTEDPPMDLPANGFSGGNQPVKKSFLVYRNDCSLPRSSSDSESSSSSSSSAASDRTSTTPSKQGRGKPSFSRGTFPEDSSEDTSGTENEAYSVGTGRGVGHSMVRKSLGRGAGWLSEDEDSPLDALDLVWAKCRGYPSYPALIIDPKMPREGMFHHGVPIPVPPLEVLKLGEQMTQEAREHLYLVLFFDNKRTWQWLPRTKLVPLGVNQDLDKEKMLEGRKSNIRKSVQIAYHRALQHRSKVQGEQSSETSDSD

Chain of Fibroblast growth factor receptor 3 (Homo sapiens) (P22607 23-806 limits assumed): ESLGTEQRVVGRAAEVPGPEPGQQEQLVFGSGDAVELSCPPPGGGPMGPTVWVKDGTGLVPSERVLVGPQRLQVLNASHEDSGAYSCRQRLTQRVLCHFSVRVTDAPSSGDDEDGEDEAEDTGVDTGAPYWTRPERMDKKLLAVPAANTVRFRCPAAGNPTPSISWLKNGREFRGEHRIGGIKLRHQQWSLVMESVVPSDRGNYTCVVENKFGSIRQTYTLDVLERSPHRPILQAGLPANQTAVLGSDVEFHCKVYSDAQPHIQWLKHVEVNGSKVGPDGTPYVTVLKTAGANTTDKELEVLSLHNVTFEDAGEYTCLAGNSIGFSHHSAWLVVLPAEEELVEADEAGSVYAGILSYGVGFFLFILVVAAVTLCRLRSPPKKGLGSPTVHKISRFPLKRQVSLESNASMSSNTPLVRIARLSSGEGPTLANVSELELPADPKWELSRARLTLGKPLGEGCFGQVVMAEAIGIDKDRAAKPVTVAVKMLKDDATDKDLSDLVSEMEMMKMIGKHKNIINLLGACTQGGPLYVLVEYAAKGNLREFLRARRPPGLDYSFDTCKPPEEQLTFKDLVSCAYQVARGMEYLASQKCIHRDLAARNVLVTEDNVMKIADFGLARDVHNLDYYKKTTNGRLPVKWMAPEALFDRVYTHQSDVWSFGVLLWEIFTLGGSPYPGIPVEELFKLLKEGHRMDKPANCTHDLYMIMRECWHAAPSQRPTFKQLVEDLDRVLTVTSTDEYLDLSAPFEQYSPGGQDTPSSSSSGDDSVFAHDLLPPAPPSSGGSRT

Row | ΔTm [1] | ΔTm (Peregrin (Homo sapiens)) | Structure (SMILES)
1 | 2.93 °C | -0.93 °C | CCn1ccc(Nc2ncc3c(n2)-c2c(nn(C)c2-c2ccc(-c4cnn(C)c4)cc2Cl)CC3)n1
2 | 0.85 °C | -2.04 °C | CS(=O)(=O)c1cc(C2(NC(=O)c3cncc4c3cnn4-c3ccc(F)cc3)CC2)ccn1
3 | 0.45 °C | -3.08 °C | CN(C)CCC[C@@]1(c2ccc(F)cc2)OCc2cc(C#N)ccc21
4 | -0.36 °C | -3.03 °C | O=C(O)CCCCN(CCc1cc(F)ccc1OCc1ccc(-c2ccc(C(F)(F)F)cc2)cc1)Cc1ccc(C(=O)O)cc1
5 | 0.68 °C | -1.94 °C | CN(C)C(=O)c1cc2cnc(Nc3ccc(N4CCN(CCCCNC(=O)COc5cccc6c5C(=O)N(C5CCC(=O)NC5=O)C6=O)CC4)cn3)nc2n1C1CCCC1 (stereo unspecified)
6 | 1.35 °C | -3.34 °C | CCCN1C(=O)c2ccc(Cl)cc2Nc2ncccc21
7 | 0.71 °C | -1.58 °C | CCC(=O)N[C@@H]1CC[C@H](C(=O)N(C)c2ccc(-c3nc4ccccc4o3)cc2)C1
8 | 1.29 °C | -2.69 °C | CC(=O)N1CCC(c2ccc(C(=O)NC(=N)N)cc2C(F)(F)F)CC1
9 | 1.03 °C | -2.12 °C | Cn1c(C2(NC(=O)c3ccc(NCC4CCCCC4)nc3)CCC2)nc2ccc(/C=C/C(=O)O)cc21
10 | 0.5 °C | -2.41 °C | O=C(Nc1ccc(N2CCC(C(=O)N3CCOCC3)CC2)cc1)c1cnc(Oc2ccccc2)nc1
11 | -0.05 °C | -3.8 °C | O=C(O)C[C@H]1CCn2c1c(Sc1ccc(Cl)cc1)c1ccc(F)cc12
12 | 0.43 °C | -2.72 °C | CC1(C)Oc2ncnc(N)c2N=C1c1ccc([C@H]2CC[C@H](CC(=O)O)CC2)cc1
13 | 0.46 °C | -0.88 °C | O=C(Cc1ccccc1)Nc1nnc(N2C[C@H]3C[C@@H]2CN3c2cccnn2)s1
14 | 1.85 °C | -2.41 °C | CNc1ncc2cc(-c3ccc(-c4cccc(C)n4)cc3Cl)c(=O)n(C[C@H]3OC[C@H](N)CO3)c2n1
15 | 0.89 °C | -1.57 °C | Cc1cc(-c2cnc(N)c3c(-c4ccc5scnc5c4)csc23)n(C)n1
16 | 0.59 °C | -1.54 °C | O=S(=O)(Nc1ccc(C(O)(C(F)(F)F)C(F)(F)F)cc1)c1cccs1
17 | 3.17 °C | 4.54 °C | COc1cccc(Cn2cc(C(=O)Nc3ccc(C)c(S(=O)(=O)N4CCOCC4)c3)c(-c3ccc(C)cc3)n2)c1
18 | 0.67 °C | -2.87 °C | Cc1[nH]c2c(N3CCCCC3)c(-c3ccccc3)nn2c(=O)c1-c1ccc(O)cc1
19 | 1.31 °C | -0.59 °C | Cn1c(Nc2c(Cl)cccc2Cl)nc2ccc3nc[nH]c(=O)c3c21
20 | 0.24 °C and 1.08 °C | -3.23 °C and -0.94 °C | Cc1c(N2CCCC2)nc2ccc(Br)cc2c1C(=O)NC[C@H](CCC(=O)O)c1ccccc1Cl
21 | 0.98 °C | -0.12 °C | NC(=O)C1CCCc2c1[nH]c1ccc(Cl)cc21 (stereo unspecified)
22 | 1.12 °C | -1.39 °C | CSc1ccc(C(=O)/C=C/c2cc(C)c(OC(C)(C)C(=O)O)c(C)c2)cc1
23 | 0.62 °C | -4.09 °C | CO[C@H]1CC[C@H](N(c2cc(F)c(Oc3ncc(Cn4nccn4)cc3C(F)(F)F)cc2C(=O)O)C(=O)[C@H]2CC[C@H](C)CC2)CC1
24 | 0.47 °C | -1.76 °C | CCN(C)C(=O)c1ccc2c(c1)NC(=O)/C2=C(\NC1CCN(C)CC1)c1ccccc1
25 | 3.57 °C | -12.9 °C | C#Cc1cnc2[nH]cc(-c3cccc4c3CCN4C(=O)[C@@H]3CCCN3C#N)c2c1
26 | 4.52 °C | -2.4 °C | CN(C(=O)c1ccccc1)c1ccc2c(c1)[nH]/c(=N\C(=O)c1ccc(Br)s1)n2CCC(N)=O
27 | 0.57 °C | -2.38 °C | Cc1c(N2CCNCC2)nc2ccc(Br)cc2c1C(=O)NC[C@H](CCC(=O)O)c1ccccc1Cl

Further lines, the compound ahead of its results:

Row | Structure (SMILES) | ΔTm [1] | ΔTm (Peregrin (Homo sapiens))
28 | Nc1ncnc2[nH]c(-c3ccccc3)nc12 | 1.78 °C | -0.39 °C
29 | COc1ccc2c(O[C@@H]3C[C@H]4C(=O)N[C@]5(C(=O)O)CC5/C=C\CCCCC[C@H](NC(=O)OC5CCCC5)C(=O)N4C3)cc(-c3csc(NC(=O)C(C)C)n3)nc2c1C (stereo partly specified) | 1.07 °C [middle of 4 runs] | -1.17 °C [middle of 4 runs]
30 | CC[C@@H](CO)Nc1nc(Nc2cccc(NC(=O)C(C)(C)C)c2)ncc1F | 2.58 °C | -1.26 °C
31 | O=C(NCCS(=O)(=O)c1ccc(C(F)(F)F)cn1)c1ccc(Cl)cc1 | 0.38 °C | -0.99 °C
32 | O=C1CCCN1CCNc1nc(Nc2ccc(Cl)c(Cl)c2)ncc1C(F)(F)F | 4.63 °C | -1.78 °C
33 | COCCN(C)c1ccc(NC(=O)/C=C(\C)c2ccc3ccccc3c2)c(C(=O)O)c1 | 1.15 °C | -1.83 °C
34 | CO[C@H]1C[C@@H]2CC[C@@H](C)[C@@](O)(O2)C(=O)C(=O)N2CCCC[C@H]2C(=O)O[C@H]([C@H](C)C[C@@H]2CC[C@@H](O)[C@H](OC)C2)CC(=O)[C@H](C)/C=C(\C)[C@@H](O)[C@@H](OC)C(=O)[C@H](C)C[C@H](C)/C=C/C=C/C=C/1C | 0.26 °C | -1.78 °C
35 | CC[C@@H]1C(=O)N(C)c2cnc(Nc3ccc(C(=O)NC4CCN(C)CC4)cc3OC)nc2N1C1CCCC1 | 0.55 °C | 1.16 °C
36 | CNC(=O)c1cc(C(=O)N[C@H]2[C@@H]3COC[C@@H]32)cc2c1O[C@H](CF)[C@H]2c1ccccc1 | 0.65 °C | -0.69 °C
37 | CCCCC/C=C/C=C1/C(=O)C=C[C@@H]1C/C=C\CCCC(=O)O | 0.72 °C | -3.72 °C
38 | CCCCCCCN(CCc1ccc(SC(C)(C)C(=O)O)cc1)C(=O)Nc1ccc(F)cc1F | 0.87 °C | -1.59 °C
39 | Cc1nnc2n1-c1sc3c(c1C(c1ccccc1Cl)=NC2)C[C@H](C(=O)N1CCOCC1)C3 | 0.59 °C | -1.51 °C
40 | CN(C(=O)CCOCCOCCOCCOCCNc1cccc2c1C(=O)N(C1CCC(=O)NC1=O)C2=O)[C@H]1CC[C@@]2(C)[C@@H](CC[C@@H]3[C@@H]2CC[C@]2(C)[C@@H](c4ccc5ccncc5c4)CC[C@@H]32)C1 (stereo partly specified) | 1.42 °C | 3.76 °C
41 | CCc1ncnc(N2CCN(C(C)=O)CC2)c1C#Cc1ccc(N)nc1 | 0.7 °C | -1.29 °C
42 | CCOC(=O)c1cc2cc(-c3cc(C(=O)NCc4ccc(C(=O)O)cc4)nn3C)ccc2[nH]1 | 0.83 °C | -3.42 °C
43 | C[C@@H](COCCC(=O)N1CCN(c2ncc(C(F)(F)F)cn2)CC1)Nc1cn[nH]c(=O)c1C(F)(F)F | 0.48 °C | -0.15 °C

Row | Structure (SMILES) | ΔTm [1] | ΔTm (Peregrin (Homo sapiens))
44 | CCC(F)(F)c1cc(N2CCC(S(C)(=O)=O)CC2)nc2sc(C(N)=O)c(N)c12 | 0.83 °C and 0.75 °C and 1.17 °C | -2.52 °C and -1.37 °C and -0.65 °C
45 | CS(=O)(=O)NC(=O)CCC/C=C\C[C@H]1C(=O)C[C@@H](O)[C@@H]1/C=C/[C@@H](O)COc1ccccc1 | 0.49 °C | -1.73 °C
46 | COc1c(-c2cn(C3CCC(=O)NC3=O)nn2)csc1C(=O)N1CCCC1 (stereo unspecified) | 0.59 °C | -1.52 °C
47 | CC1(C)Cc2nc(C3CCCC3)c([C@@H](F)c3ccc(C(F)(F)F)cc3)c(C3CCCCC3)c2[C@@H](O)C1 | 1.5 °C | -1.29 °C
48 | Cc1nsc(Nc2cnc(C(F)(F)F)cn2)c1C(=O)Nc1ccc(O[C@H]2CCCN(CC(F)(F)F)C2)nc1 | 1.39 °C | -3.38 °C
49 | Cc1cc2nc(N3CCC(C(=O)NC4CCCC4)CC3)n(C(C)C)c2cc1C | 0.35 °C | -3.41 °C
50 | CCNc1ccc(-c2nn(-c3ccccc3C)c3c2C(C)Cc2nc(NC(=O)OC)sc2-3)cn1 (stereo unspecified) | 0.96 °C | -1.43 °C
51 | C[C@H]1CN(C2COC2)CCN1c1ccc(Nc2cc(-c3ccnc(N4CCn5c(cc6c5CC(C)(C)C6)C4=O)c3CO)cn(C)c2=O)nc1 | 4.28 °C | -2.12 °C
52 | CCOCCn1cc(C(=O)Nc2ccc(-n3nc(-c4cccnc4)cc3C(F)(F)F)cn2)ccc1=O | 0.41 °C | -3.33 °C
53 | CCCCNc1ncc2c(-c3ccc(CN4CCN(C)CC4)cc3)cn([C@H]3CC[C@H](O)CC3)c2n1 | 7.9 °C | -3.2 °C
54 | CN(C)c1ccc(-c2cc3ncccc3c(OCCCCO)n2)cc1 | 3.37 °C | -2.48 °C
55 | CC(F)(F)CN1C(=O)c2[nH]nc(-c3cccc4[nH]c(=O)oc34)c2C1c1ccc(Oc2cc(C(F)(F)F)cc(C(F)(F)F)c2)cc1 (stereo unspecified) | -5.32 °C | -0.66 °C
56 | CC(C)C(=O)N1CCC(c2cn(C)c3ncc(NC(=O)c4cccc(C#N)c4)c(C(F)(F)F)c23)CC1 | 0.79 °C | 0.27 °C
57 | CN(CCCCCCC1=C(c2cc(F)cc(F)c2)CCCc2cc(O)ccc21)CCCCS(=O)(=O)CCCC(F)(F)F | 0.68 °C | -1.47 °C
58 | N#Cc1ccc(COc2ccc(Br)cc2CNCCO)cn1 | 0.63 °C | 0.18 °C
